Where two headings read alike, the source gives them in different places.
Molecular target: T1, human enzyme NAMPT (full length) (Homo sapiens, UniProt P43490)
T1 construct: human enzyme NAMPT (full length)
Experiment: NMN fluorescence biochemical assay (stimulation of NMN synthesis by NAMPT)
Details: for EC50: concentration giving half-maximal activation, read-out: Enzymatic EC50; for Enzymatic Emax: fold change of maximal activation compared to DMSO
How it was run: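 Full-length human NAMPT (100 nM) was preincubated 15 min at 37 °C with compound in 50 mM Tris-HCl pH 7.5, 10 mM MgCl2, 2 mM DTT, then reacted 1 h at 37 °C with 50 μM NAM, 100 μM PRPP, 4 mM ATP (stated solution concentrations). NMN was derivatised with acetophenone/KOH then formic acid and read at Ex/Em 382/445 nm; EC50 and Emax (fold over DMSO) reported.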

[1] = NMN synthesis by purified human NAMPT (100 nM)
[2] = NMN fluorescence assay, purified human NAMPT 100 nM

T1 sequence (P43490 whole entry): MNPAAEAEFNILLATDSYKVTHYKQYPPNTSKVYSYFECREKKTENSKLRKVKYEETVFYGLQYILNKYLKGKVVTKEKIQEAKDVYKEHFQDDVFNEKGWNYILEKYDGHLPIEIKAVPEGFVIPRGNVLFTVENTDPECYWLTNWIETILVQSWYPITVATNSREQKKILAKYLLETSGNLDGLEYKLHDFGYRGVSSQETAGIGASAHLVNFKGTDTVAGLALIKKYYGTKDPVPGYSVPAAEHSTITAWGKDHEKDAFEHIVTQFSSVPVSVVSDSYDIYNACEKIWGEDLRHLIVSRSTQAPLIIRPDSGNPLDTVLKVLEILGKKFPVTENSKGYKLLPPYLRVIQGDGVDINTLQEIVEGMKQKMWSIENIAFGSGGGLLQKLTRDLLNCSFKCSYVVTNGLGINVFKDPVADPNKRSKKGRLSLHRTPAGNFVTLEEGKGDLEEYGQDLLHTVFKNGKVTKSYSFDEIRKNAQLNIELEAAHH

| Structure (SMILES) | EC50 [1] [nM] | Enzymatic Emax | EC50 [2] [nM] |
| --- | --- | --- | --- |
| Cc1ccnc(Cl)c1CC1c2ccccc2C(=O)N1Cc1ccc2[nH]c(=O)oc2c1 (centres unmarked) [Compound 263, 6-((1-((2-chloro-4-methylpyridin-3-yl)methyl)-3-oxoisoindolin-2-yl)methyl)benzo[d]oxazol-2(3H)-one] | < 500 | A (A>3) | – |
| Cn1ncc(Cl)c1CC1c2cc(C3CNC3)ccc2C(=O)N1Cc1ccc2[nH]nnc2c1 (centres unmarked) [Compound 383, 2-((1H-benzo[d][1,2,3]triazol-5-yl)methyl)-5-(azetidin-3-yl)-3-((4-chloro-1-methyl-1H-pyrazol-5-yl)methyl)isoindolin-1-one] | – | B (3≥B>2) | < 500 |
| COc1cccc2c1C(=O)N(CC1CC3(CNC(=O)O3)C1)C2Cc1c(Cl)cnn1C (centres unmarked) [Compound 433, 2-((1-((4-chloro-1-methyl-1H-pyrazol-5-yl)methyl)-4-methoxy-3-oxoisoindolin-2-yl)methyl)-5-oxa-7-azaspiro[3.4]octan-6-one] | – | B (3≥B>2) | 500 to 5000 |
| CCn1c2ccccc2c(=O)n1Cc1ccc(O)cc1 [Compound 24, 1-ethyl-2-(4-hydroxybenzyl)-1,2-dihydro-3H-indazol-3-one] | ≥ 5000 | A (A>3) | – |
| Cn1ncc(Cl)c1CC1c2ccccc2C(=O)N1Cc1ccc(Br)cc1 (centres unmarked) [Compound 575, 2-(4-bromobenzyl)-3-((4-chloro-1-methyl-1H-pyrazol-5-yl)methyl)isoindolin-1-one] | – | C (2≥C) | 500 to 5000 |
| COc1ncc(CN2C(=O)c3ccccc3C2Cc2c(Cl)cnn2C)cc1F (centres unmarked) [Compound 532, 3-((4-chloro-1-methyl-1H-pyrazol-5-yl)methyl)-2-((5-fluoro-6-methoxypyridin-3-yl)methyl)isoindolin-1-one] | – | C (2≥C) | ≥ 5000 |

Further lines, results first:

| EC50 [1] [nM] | Enzymatic Emax | EC50 [2] [nM] | Structure (SMILES) |
| --- | --- | --- | --- |
| < 500 | B (3≥B>2) | – | Cn1cc(Cl)c(CC2c3ccccc3C(=O)N2Cc2ccc3[nH]nnc3c2)n1 (centres unmarked) [Compound 250, 2-((1H-benzo[d][1,2,3]triazol-5-yl)methyl)-3-((4-chloro-1-methyl-1H-pyrazol-3-yl)methyl) isoindolin-1-one] |
| – | B (3≥B>2) | < 500 | CN(C)C1CN(c2ccc3c(c2)C(Cc2c(Cl)cnn2C)N(CC2CC4(CNC(=O)O4)C2)C3=O)C1 (centres unmarked) [Compound 497, 2-((3-((4-chloro-1-methyl-1H-pyrazol-5-yl)methyl)-5-(3-(dimethylamino)azetidin-1-yl)-1-oxoisoindolin-2-yl)methyl)-5-oxa-7-azaspiro[3.4]octan-6-one] |
| – | C (2≥C) | 500 to 5000 | CC(=O)Nc1ncc(CN2C(=O)c3ccccc3C2Cc2ncccc2Br)cn1 (centres unmarked) [Compound 443, N-(5-((1-((3-bromopyridin-2-yl)methyl)-3-oxoisoindolin-2-yl)methyl)pyrimidin-2-yl)acetamide] |
| 500 to 5000 | A (A>3) | – | O=C1c2ccccc2C(Cc2ncccc2Br)N1Cc1ccc2[nH]c(Cl)nc2c1 (centres unmarked) [Compound 255, 3-((3-bromopyridin-2-yl)methyl)-2-((2-chloro-1H-benzo[d]imidazol-5-yl)methyl) isoindolin-1-one] |
| 500 to 5000 | B (3≥B>2) | – | O=C1c2ccccc2C(Cc2cc(Cl)ccn2)N1Cc1ccc2[nH]c(=O)oc2c1 (centres unmarked) [Compound 220, 6-((1-((4-chloropyridin-2-yl)methyl)-3-oxoisoindolin-2-yl)methyl)benzo[d]oxazol-2(3H)-one] |
| – | B (3≥B>2) | ≥ 5000 | Cn1ncc(Cl)c1CC1c2ccccc2C(=O)N1CC1CC(=O)C1 (centres unmarked) [Compound 556, 3-((4-chloro-1-methyl-1H-pyrazol-5-yl)methyl)-2-((3-oxocyclobutyl)methyl)isoindolin-1-one] |
| 500 to 5000 | B (3≥B>2) | – | O=C1c2ccccc2C(Cc2cccnc2F)N1Cc1ccc2[nH]c(=O)oc2c1 (centres unmarked) [Compound 183, 6-((1-((2-fluoropyridin-3-yl)methyl)-3-oxoisoindolin-2-yl)methyl)benzo[d]oxazol-2(3H)-one] |
